Experimental data reported in US20240131028A1, “CHEMOVACCINATION AGAINST PLASMODIUM INFECTION WITH SELECTIVE PLASMEPSIN X INHIBITORS” (Merck Sharp & Dohme LLC, priority 2021, published 2024).
pEC50: −log10 of the molar value.

system: ring stage parasites (Pf); experiment: Parasite lactate dehydrogenase (LDH) growth assay (Parasite Assay, PfLDH Assay); assay type: cell-based, P. falciparum; conditions: Plasmodium falciparum, 72 h, Table 3; 72 hours growth, LDH readout; read-out: EC50

SMILES | pEC50
COc1cncc([C@H]([C@H]2C[C@@H]2C(=O)N[C@H]2C[C@H](C(F)(F)F)Oc3ccccc32)N2C(=N)NC(C)(C)CC2=O)c1 [Example 41] | 8.96
COc1ccc([C@H]([C@H]2C[C@@H]2C(=O)N[C@H]2C[C@H](C(F)(F)F)Oc3ccccc32)N2C(=N)NC(C)(C)CC2=O)cn1 [Example 37] | 8.92
CC1(C)CC(=O)N(C[C@H]2C[C@@H]2C(=O)N[C@H]2CC(C)(C)Oc3ccc(F)cc32)C(=N)N1 [Example 71] | 6.90
CC1(C)CC(=O)N([C@H](c2cccnc2)[C@@H]2[C@@H](C(=O)N[C@H]3C[C@H](C(F)(F)F)Oc4ccccc43)C2(C)C)C(=N)N1 [Example 43A] | 8.40
CCC1(CC)CC(=O)N([C@@H](c2cccnc2)[C@H]2C(C)[C@@H]2C(=O)N[C@H]2CC(C)(C)Oc3ccccc32)C(=N)N1 (stereo partly drawn) [Example 56A] | 7.19
COCC[C@H]([C@H]1C[C@@H]1C(=O)N[C@@H]1CC(C)(C)Oc2cc(C)c(C)cc21)N1C(=N)NC(C)(C)CC1=O [Example 138B] | 7.74
COCC[C@H]([C@H]1C[C@@H]1C(=O)NC1CC(C)(C)Oc2ccccc21)N1C(=N)NC(C)(C)CC1=O (stereo partly drawn) [Example 23A] | 7.80
COCC[C@H]([C@H]1C[C@@H]1C(=O)NC1CC2(CCC2)Oc2ccccc21)N1C(=N)NC(C)(C)CC1=O (stereo partly drawn) [Example 131A] | 8.17
CC[C@]1(C)CC(=O)N([C@H](CCOC)[C@H]2C[C@@H]2C(=O)N[C@H]2CC(C)(C)Oc3ccccc32)C(=N)N1 [Example 64A] | 8.64
COCC[C@H]([C@H]1C[C@@H]1C(=O)N[C@@H]1CC(C)(C)Oc2cccc(OC)c21)N1C(=N)NC(C)(C)CC1=O [Example 74A] | 7.48
CC(C)C1(C)CC(NC(=O)[C@H]2C[C@@H]2CN2C(=N)NC(C)(C)CC2=O)c2ccccc2O1 (stereo partly drawn) [Example 79A] | 6.59
COCC[C@H]([C@H]1C[C@@H]1C(=O)N[C@@H]1CC(C)(C)Oc2cc(C)c(Cl)cc21)N1C(=N)NC(C)(C)CC1=O [Example 137A] | 7.92
COCC[C@H]([C@H]1C[C@@H]1C(=O)N[C@H]1CC(C)(C)Oc2cc(C)c(C)cc21)N1C(=N)NC(C)(C)CC1=O [Example 138A] | 8.13
CC1(C)CC(=O)N([C@H](c2cccnc2)[C@H]2C[C@@H]2C(=O)NC2CC(C)(C)Oc3c(Cl)cccc32)C(=N)N1 (stereo partly drawn) [Example 121A] | 8.60
CC[C@@]1(C)CC(=O)N(C(c2cncc(F)c2)[C@H]2C[C@@H]2C(=O)N[C@@H]2c3ccccc3OCC2(C)C)C(=N)N1 (stereo partly drawn) [Example 102B] | 8.60
CCC1(CC)CC(=O)N([C@H](c2cccnc2)[C@@H]2[C@@H](C(=O)N[C@H]3C[C@H](C(F)(F)F)Oc4ccccc43)C2(C)C)C(=N)N1 [Example 44B] | 9.05
CC1(C)CC(=O)N([C@@H](c2cncc(Cl)c2)[C@H]2C[C@@H]2C(=O)N[C@H]2CC(C)(C)Oc3ccccc32)C(=N)N1 [Example 58A] | 6.68
CC1(C)CC(=O)N([C@H](c2cccnc2)[C@H]2C[C@@H]2C(=O)NC2CC(C)(C)Oc3c(F)cccc32)C(=N)N1 (stereo partly drawn) [Example 93A] | 8.48
COCC[C@H]([C@H]1C[C@@H]1C(=O)N[C@H]1CC(C)(C)Oc2ccc(C(F)(F)F)cc21)N1C(=N)NC(C)(C)CC1=O [Example 110B] | 8.14
CCC1(CC)CC(=O)N(C[C@H]2C(C)[C@@H]2C(=O)N[C@H]2C[C@@H](C(F)(F)F)Oc3ccccc32)C(=N)N1 (stereo partly drawn) [Example 28A] | 7.92
COCC[C@H]([C@H]1C[C@@H]1C(=O)N[C@H]1CC(C)(C)Oc2cccc(OC(F)(F)F)c21)N1C(=N)NC(C)(C)CC1=O [Example 107A] | 8.68
CC1(C)CC(=O)N(C[C@H]2C[C@@H]2C(=O)N[C@H]2CC(C)(C)Oc3cccc(OC(F)(F)F)c32)C(=N)N1 [Example 118] | 7.20
CC[C@@]1(C)CC(=O)N(C(c2cncc(F)c2)[C@H]2C[C@@H]2C(=O)N[C@H]2CC(C)(C)Oc3ccccc32)C(=N)N1 (stereo partly drawn) [Example 67A] | 9.05
CC1(C)CC(=O)N(C[C@H]2C[C@@H]2C(=O)N[C@H]2CC3(CCC3)Oc3ccccc32)C(=N)N1 [Example 135] | 6.72
COc1cccc2c1[C@@H](NC(=O)[C@H]1C[C@@H]1CN1C(=N)NC(C)(C)CC1=O)CC(C)(C)O2 [Example 73] | 6.72
COCC[C@H]([C@H]1C[C@@H]1C(=O)N[C@H]1CC(C)(C)Oc2cc(C)c(Cl)cc21)N1C(=N)NC(C)(C)CC1=O [Example 137B] | 8.19
COCC[C@H]([C@H]1C[C@@H]1C(=O)N[C@H]1CC(C)(C)Oc2ccc(Cl)cc21)N1C(=N)NC(C)(C)CC1=O [Example 101] | 8.54
CC1(C)CC(=O)N(C[C@H]2C[C@@H]2C(=O)N[C@H]2CC(C)(C)Oc3cccc(F)c32)C(=N)N1 [Example 87] | 6.80
CC1(C)CC(=O)N(C[C@H]2C[C@@H]2C(=O)N[C@H]2CC(C)(C)Oc3cc(Cl)ccc32)C(=N)N1 [Example 90] | 6.65
CC1(C)CC(=O)N([C@H](c2cncc(Cl)c2)[C@H]2C[C@@H]2C(=O)N[C@H]2CC(C)(C)Oc3ccccc32)C(=N)N1 [Example 58B] | 9.00

same assay, conditions: Plasmodium falciparum, 72 h, Table 4; 72 hours growth, LDH readout; read-out: EC50 (Table 4)

SMILES | pEC50
CCC1(CC)CC(=O)N([C@H](CCOC)[C@H]2C[C@@H]2C(=O)NC2c3cc(Cl)ccc3OC(C)(C)[C@H]2O)C(=N)N1 (stereo partly drawn) [Example 150] | 8.41
CCC1(CC)CC(=O)N([C@H](CCOC)[C@H]2C[C@@H]2C(=O)NC2CC(C)(C)Oc3c(Cl)cccc32)C(=N)N1 (stereo partly drawn) [Example 148A] | 8.57
CCC1(CC)CC(=O)N([C@H](CCOC)[C@H]2C[C@@H]2C(=O)NC2CC(C)(C)Oc3cccc(Cl)c32)C(=N)N1 (stereo partly drawn) [Example 149A] | 9.00

same assay, conditions: Table 3; 72 hours growth, LDH readout; read-out: EC50

SMILES | pEC50
CC[C@]1(C)CC(=O)N([C@H](CCOC)[C@H]2C[C@@H]2C(=O)NC2CC(C)(C)Oc3ccc(C(F)(F)F)cc32)C(=N)N1 (single isomer, unassigned) [Example 127A] | 8.96
CC1(C)CC(=O)N([C@H](c2cccnc2)[C@H]2C[C@@H]2C(=O)NC2CC(C)(C)Oc3c(F)cc(F)cc32)C(=N)N1 (stereo partly drawn) [Example 122B] | 8.66
CCC1(CC)CC(=O)N(C[C@H]2C(C)[C@@H]2C(=O)N[C@H]2CC(C)(C)Oc3ccccc32)C(=N)N1 (single isomer, unassigned) [Example 25A] | 7.08
CCC1(CC)CC(=O)N(C[C@H]2C(C)[C@@H]2C(=O)N[C@@H]2c3ccccc3OCC2(C)O)C(=N)N1 (single isomer, unassigned) [Example 35A] | 7.07
COc1ccc2c(c1)OC(C)(C)C[C@@H]2NC(=O)[C@H]1C[C@@H]1[C@H](c1cccnc1)N1C(=N)NC(C)(C)CC1=O [Example 65B] | 8.10
CC[C@@]1(C)CC(=O)N(C(c2cncc(F)c2)[C@H]2C[C@@H]2C(=O)N[C@H]2CC(C)(C)Oc3ccc(F)cc32)C(=N)N1 (stereo partly drawn) [Example 69A] | 9.00
CC(C)C1(C)CC(NC(=O)[C@H]2C[C@@H]2[C@@H](c2cccnc2)N2C(=N)NC(C)(C)CC2=O)c2ccccc2O1 (single isomer, unassigned) [Example 81C] | 9.05
CC(C)C1(C)CC(NC(=O)[C@H]2C[C@@H]2[C@@H](c2cccnc2)N2C(=N)NC(C)(C)CC2=O)c2ccccc2O1 (single isomer, unassigned) [Example 81B] | 9.00
COCC[C@H]([C@H]1C[C@@H]1C(=O)NC1CC(C)(C)Oc2cc(F)ccc21)N1C(=N)NC(C)(C)CC1=O (stereo partly drawn) [Example 76B] | 7.82
CCC1(CC)CC(=O)N(C[C@H]2C(C)[C@@H]2C(=O)N[C@@H]2c3ccccc3OC(C)(C)[C@H]2O)C(=N)N1 (single isomer, unassigned) [Example 30A] | 7.35
COCC[C@H]([C@H]1C[C@@H]1C(=O)NC1CC(C)(C)Oc2c(F)cccc21)N1C(=N)NC(C)(C)CC1=O (stereo partly drawn) [Example 111B] | 7.82
CC[C@]1(C)CC(=O)N([C@H](CCOC)[C@H]2C[C@@H]2C(=O)NC2CC(C)(C)Oc3ccc(F)cc32)C(=N)N1 (single isomer, unassigned) [Example 130A] | 9.05
CC(C)C1(C)CC(NC(=O)[C@H]2C[C@@H]2[C@@H](c2cccnc2)N2C(=N)NC(C)(C)CC2=O)c2ccccc2O1 (single isomer, unassigned) [Example 81D] | 8.89
COCC[C@H]([C@H]1C[C@@H]1C(=O)NC1CC(C)(C(C)C)Oc2ccccc21)N1C(=N)NC(C)(C)CC1=O (single isomer, unassigned) [Example 80B] | 8.18
CCC1(C)CC(NC(=O)[C@H]2C[C@@H]2[C@@H](CCOC)N2C(=N)NC(C)(C)CC2=O)c2ccccc2O1 (single isomer, unassigned) [Example 75C] | 8.15
CC[C@]1(C)CC(=O)N(C(c2cncc(F)c2)[C@H]2C[C@@H]2C(=O)N[C@@H]2c3ccccc3OC(C)(C)C2(C)O)C(=N)N1 (single isomer, unassigned) [Example 103B] | 8.68
CCC1(CC)CC(=O)N(C[C@H]2C(C)[C@@H]2C(=O)N[C@@H]2c3ccccc3OC(C)(C)[C@H]2O)C(=N)N1 (single isomer, unassigned) [Example 30B] | 8.11
CC1(C)CC(=O)N(C[C@H]2C[C@@H]2C(=O)N[C@H]2CC(C3CC3)Oc3ccccc32)C(=N)N1 (stereo partly drawn) [Example 140B] | 6.55

same assay, conditions: Table 4; 72 hours growth, LDH readout; read-out: EC50 (Table 4)

SMILES | pEC50
CCC1(CC)CC(=O)N([C@H](CCOC)[C@H]2C[C@@H]2C(=O)NC2CC(C)(C)Oc3cccc(Cl)c32)C(=N)N1 (stereo partly drawn) [Example 149B] | 8.92
CCC1(CC)CC(=O)N([C@H](CCOC)[C@H]2C[C@@H]2C(=O)NC2CC(C)(C)Oc3c(Cl)cccc32)C(=N)N1 (stereo partly drawn) [Example 148B] | 8.72
CCC1(CC)CC(=O)N(C(CC(C)OC)[C@H]2C[C@@H]2C(=O)N[C@H]2CC(C)(C)Oc3ccccc32)C(=N)N1 (single isomer, unassigned) [Example 142C] | 6.69
